Experimental findings from US6358929B1, “Use of a peptide preventing the intolerance reactions of the skin, in particular in cosmetic compositions” (L'Oreal, priority 1998, dated 2002) are described below.

Assay [1] deals with female Balb/C mice. Nature of the assay: Contact hypersensitivity to TNCB, peptide applied topically in a water-in-oil cream. Format: in vivo, mouse. The settings on record: peptide in water-in-oil cream applied to the area to be sensitized 2 hours before sensitization; 24 hours after triggering; positive controls 7×10^−2 mm. On the procedure: The procedure is carried out as in a) above, but the peptide, incorporated in a cream of the water-in-oil type, is applied to the area to be sensitized 2 hours before the sensitization.
24 hours after the triggering reaction, the increase in the thickness of the ear is on average 3×10^−2 mm in the treated mice and 7×10^−2 mm in the positive controls.

The test system of assay [2] is female Balb/C mice. As to the kind of experiment: Contact hypersensitivity to TNCB after sensitization, peptide injected i.v. before sensitization. Format: in vivo, mouse. The settings on record: 1.5 μg peptide i.v. (tail vein) 2 hours before TNCB sensitization; triggering 7 days later; measured 24 hours after triggering; positive controls 9.8×10^−2 mm, negative controls 1×10^−2 mm. On the procedure:
The study is carried out on 7-to 10-week-old female Balb/C mice.
A dose of 1.5 μg of the peptide studied (in solution in PBS buffer containing 0.1% of mouse serum) is injected into a vein of the tail of the mice 2 hours before the sensitization reaction.
The sensitization reaction consists in applying, with a brush, 100 μl of a solution containing 0.15% of TNCB in an acetone-olive oil (4:1) mixture to the shaved skin of the abdomen of the mice.
The triggering reaction is carried out 7 days after the sensitization reaction. This triggering reaction consists in applying to the two sides of an ear 10 microlitres of a solution containing 0.8% of TNCB in a vehicle consisting of the acetone-olive oil mixture already mentioned above.
To the other ear, only this mixture of acetone and olive oil is applied, for comparison.
The intensity of a possible contact hypersensitivity reaction is evaluated by estimating the size of the oedema of the ear treated with TNCB, in comparison with the ear treated with the vehicle alone. For that, the thickness of the ears is measured and compared with the aid of a micrometer screw. This measurement is carried out 24 hours after the triggering reaction.
The TNCB is also applied to the ear of control mice which have not been previously sensitized (negative controls).

For assay [3], the system named is female Balb/C mice. Nature of the assay: Contact hypersensitivity to TNCB after a second sensitization (tolerance test). In kind it is in vivo, mouse. The settings on record: same mice re-sensitized with TNCB 14 days after the first experiment, no new peptide; triggering 7 days later; measured 24 hours later; positive controls 14×10^−2 mm. How it is done: 14 days after the end of the experiment described in a) above, the same mice are subjected to a new sensitization reaction on the shaved skin of the back, as described in a).
7 days later, the triggering test is carried out by application of TNCB to the ear, and 24 hours later, the degree of swelling of the ear is measured.
The aim of this second experiment is to distinguish between a possible a specific temporary immunosuppression and a specific immunological tolerance.

For assay [4], the system named is volunteer patients in whom a contact allergy to nickel was suspected. Nature of the assay: Topical effect on contact hypersensitivity reaction to nickel sulphate patch. In kind it is in vivo, humans. The settings on record: cream containing 100 μM peptide under occlusive dressing on the back, 2 hours before 5% nickel sulphate patch; examined 24 hours later. On the procedure: This study was carried out on 18 to 65 year-old volunteer patients in whom a contact allergy to nickel was suspected.
On day 0, there are applied with an occlusive dressing, to areas of the skin of the back, on the one hand a cream containing 100 μM of the peptide of formula II, and on the other hand the cream alone, without peptide, used as placebo.
Two hours later, patches impregnated with petroleum jelly containing nickel sulphate at a concentration of 5% are applied to the same areas of the skin, and also to an adjacent area that has not been pretreated.
24 hours later, the patients are examined. Those who developed a contact hypersensitivity reaction over the area treated with the placebo (and also over the adjacent area which received only the application of nickel salt), and who are therefore people who were already sensitized to nickel, are 14 in number.

Consider Ac-D-Lys-D-Pro-D-Val-NH2 [II], for which the “increase in the thickness of the ear” value is reported as 3×10^−2 mm with female Balb/C mice [1] and “about 2.5×10^−2 mm” with female Balb/C mice [2]. The “degree of swelling of the ear (increase in the thickness of the ear)” value in the assay with female Balb/C mice [3] is on record as ~3.5×10^−2 mm. The “people (out of 14 already sensitized to nickel) who did not develop any contact hypersensitivity reaction over the area treated with the peptide” value in assay [4] is reported as 7.
